Assay results taken from US8129398B2 (priority 2008, dated 2012).
Read-outs that look alike come from different tables or passages of the source.

Experiments:
HIV-integrase = target: T1, HIV-integrase (Human immunodeficiency virus type 1 group M subtype B, UniProt P12497); assay: HIV-Integrase Inhibition Activity (SPA bead integration assay with P33 labeled target DNA); type: biochemical; settings: for IC50: recombinant integrase, class symbols, read-out: in vitro activity; for Ki: representative compounds
T1 construct: Recombinant integrase (0.26 ng) was incubated with the beads
Outline: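 Strand integration read as bead-proximity CPM after P33 target DNA (0.1 fmol) and inhibitor were added to washed integrase–substrate DNA complexes on SPA beads. Enzyme bound 90 min at 37° C; EDTA (10 mM final) terminated reaction; IC50 graded A/B/C.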

[1] = test system: recombinant NL-Rluc virus; assay: Inhibition of HIV replication (recombinant NL-Rluc virus, Renilla luciferase reporter); type: cell-based
[2] = read-out: Antiviral activity, NL-Rluc virus, serum condition not specified (10% FBS, 15 mg/ml human serum albumin/10% FBS or 40% human serum/5% FBS), class symbols

Compound	IC50 (HIV-integrase)	Ki (HIV-integrase)	EC50 ([1]; Human immunodeficiency virus 1)	EC50 [1, 2]
Cc1noc(C)c1S(=O)(=O)NC12CCC(CC1)Cn1c2nc(C(=O)NCc2ccc(F)cc2)c(O)c1=O [Example 392]	> 100 nM	467 nM	618 nM	–
CC(=O)N1CCC[C@H]1C(=O)NC12CCC(CC1)Cn1c2nc(C(=O)NCc2ccc(F)cc2)c(O)c1=O [Example 255, 7,10-Ethanopyrimido[1,2-a]azepine-2-carboxamide, 10-[[[(2S)-1-acetyl-2-pyrrolidinyl]carbonyl]amino]-N-[(4-fluorophenyl)methyl]-4,6,7,8,9,10-hexahydro-3-hydroxy-4-oxo-]	< 10 nM	–	–	< 10 nM
O=C(NC12CCC(Cn3c1nc(C(=O)NCc1ccc(F)cc1)c(O)c3=O)OC2)OCc1ccccc1 (centres unmarked) [Example 219, Benzyl (2-((4-fluorobenzyl)carbamoyl)-3-hydroxy-4-oxo-6,7,8,9-tetrahydro-7,10-(epoxymethano)pyrimido[1,2-a]azepin-10(4H)-yl)carbamate]	10 to 100 nM	12 nM	37 nM	–
Cc1cc(CNC(=O)c2nc3n(c(=O)c2O)CC2CCC3(NS(=O)(=O)C3CC3)CC2)ccc1F [Example 42, 10-((Cyclopropylsulfonyl)amino)-N-(4-fluoro-3-methylbenzyl)-3-hydroxy-4-oxo-4,6,7,8,9,10-hexahydro-7,10-ethanopyrimido[1,2-a]azepine-2-carboxamide]	< 10 nM	1 nM	1 nM	–
O=C(NCc1ccc(F)cc1)c1nc2n(c(=O)c1O)CC1CC2CN(C(=O)OCc2ccccc2)C1 (centres unmarked) [Example 6, 7,11-Methano-4H-pyrimido[1,2-a][1,5]diazocine-9(6H)-carboxylic acid, 2-[[[(4-fluorophenyl)methyl]amino]carbonyl]-7,8,10,11-tetrahydro-3-hydroxy-4-oxo-, phenylmethyl ester]	10 to 100 nM	12 nM	141 nM	–
CS(=O)(=O)N1CCC[C@H]1C(=O)NC12CCC(CC1)Cn1c2nc(C(=O)NCc2ccc(F)cc2)c(O)c1=O [Example 256, 7,10-Ethanopyrimido[1,2-a]azepine-2-carboxamide, N-[(4-fluorophenyl)methyl]-4,6,7,8,9,10-hexahydro-3-hydroxy-10-[[[(2S)-1-(methylsulfonyl)-2-pyrrolidinyl]carbonyl]amino]-4-oxo-]	< 10 nM	–	–	< 10 nM
Cc1cc(CNC(=O)c2nc3n(c(=O)c2O)CC2CCC3(NC(=O)C3(C(F)(F)F)CC3)CC2)ccc1F [Example 303, 7,10-Ethanopyrimido[1,2-a]azepine-2-carboxamide, N-[(4-fluoro-3-methylphenyl)methyl]-4,6,7,8,9,10-hexahydro-3-hydroxy-4-oxo-10-[[[1-(trifluoromethyl)cyclopropyl]carbonyl]amino]-]	> 100 nM	180 nM	192 nM	–
CN(C)C(=O)C(=O)NC12CCC(Cn3c1nc(C(=O)NCc1ccc(F)cc1)c(O)c3=O)C2 (single isomer, unassigned) [Example 412, Ethanediamide, N′-[2-[[[(4-fluorophenyl)methyl]amino]carbonyl]-6,7,8,9-tetrahydro-3-hydroxy-4-oxo-7,11-methanopyrimido[1,2-a]azepin-10(4H)-yl]-N,N-dimethyl-]	< 10 nM	–	–	< 10 nM
O=C(NCc1ccc(F)cc1)c1nc2n(c(=O)c1O)CC1CCC2(NS(=O)(=O)c2ccccc2OC(F)(F)F)CC1 [Example 396]	> 100 nM	294 nM	455 nM	–
O=C(NCc1ccc(F)cc1)c1nc2n(c(=O)c1O)CC1CCC2(NS(=O)(=O)C2CC2)CC1 [Example 41, 10-((Cyclopropylsulfonyl)amino)-N-(4-fluorobenzyl)-3-hydroxy-4-oxo-4,6,7,8,9,10-hexahydro-7,10-ethanopyrimido[1,2-a]azepine-2-carboxamide]	< 10 nM	1 nM	< 1 nM	–
CN(C)C(=O)C(=O)NC12CCC(CCn3c1nc(C(=O)NCc1ccc(F)cc1)c(O)c3=O)C2 (single isomer, unassigned) [Example 414, Ethanediamide, N′-[2-[[[(4-fluorophenyl)methyl]amino]carbonyl]-7,8,9,10-tetrahydro-3-hydroxy-4-oxo-8,11-methano-4H-pyrimido[1,2-a]azocin-11(6H)-yl]-N,N-dimethyl-]	< 10 nM	–	–	< 10 nM
COc1ccc(CNC(=O)c2nc3n(c(=O)c2O)CC2CCC3(NC(=O)C(=O)N(C)C)CC2)c(OC)c1 [Example 382]	10 to 100 nM	11 nM	16 nM	–
O=C(NC12CCC(CC1)Cn1c2nc(C(=O)NCc2ccc(F)cc2)c(O)c1=O)C(=O)c1c[nH]c2c(-n3cncn3)ncc(F)c12 [Example 48, N-(4-Fluorobenzyl)-10-(((4-fluoro-7-(1H-1,2,4-triazol-1-yl)-1H-pyrrolo[2,3-c]pyridin-3-yl)(oxo)acetyl)amino)-3-hydroxy-4-oxo-4,6,7,8,9,10-hexahydro-7,10-ethanopyrimido[1,2-a]azepine-2-carboxamide]	< 10 nM	1 nM	4 nM	–
CC(=O)NC12CCC(CC1)Cn1c2nc(C(=O)NCc2ccc(F)cc2-n2ncnc2C)c(O)c1=O [Example 38, 10-(Acetylamino)-N-(4-fluoro-2-(5-methyl-1H-1,2,4-triazol-1-yl)benzyl)-3-hydroxy-4-oxo-4,6,7,8,9,10-hexahydro-7,10-ethanopyrimido[1,2-a]azepine-2-carboxamide]	< 10 nM	9 nM	37 nM	–
NC12CCC(CC1)Cn1c2nc(C(=O)NCc2ccc(F)cc2)c(O)c1=O [Example 19, 10-Amino-N-(4-fluorobenzyl)-3-hydroxy-4-oxo-4,6,7,8,9,10-hexahydro-7,10-ethanopyrimido[1,2-a]azepine-2-carboxamide]	> 100 nM	126 nM	302 nM	–
CN(C)C(=O)C(=O)NC12CCC(CC1)Cn1c2nc(C(=O)N[C@H]2C[C@@H]2c2ccccc2)c(O)c1=O [Example 357]	< 10 nM	9 nM	6 nM	–
